Experimental data from the NIST ThermoML archive (doi:10.1021/je060033f).
Numbers after ± are expanded uncertainties.

Experiment: activity coefficient (dimensionless); of the first substance listed, at infinite dilution; xn = mol fraction of the nth substance listed
Details: 323.15 K; 101 kPa; Liquid; Chromatography; x1 = 0
Work on ClCCl [dichloromethane] + C=CCn1cc[n+](C)c1.[Br-] yielded an activity coefficient of 0.33 ± 0.03.
In the case of ClCCl [dichloromethane] + CCCCCCCCCCCC[n+]1ccn(CCCB(O)O)c1.[Br-], the activity coefficient is reported as 0.34 ± 0.03.
For ClCCl [dichloromethane] + CCCCCCCCCC[n+]1ccn(CCCB(O)O)c1.[Br-], the activity coefficient was 0.25 ± 0.03.
With ClCCl [dichloromethane] + CCCCCCCC[n+]1ccn(CCCB(O)O)c1.[Br-] the activity coefficient was 0.41 ± 0.03.
Work on ClCCl [dichloromethane] + C[n+]1ccn(CCCB(O)O)c1.[Br-] yielded an activity coefficient of 3.2 ± 0.22.
CCOCC [diethyl ether] + C=CC[n+]1ccn(CCCCCCCC)c1.[Br-] gave an activity coefficient of 4.18 ± 0.28.
CCOCC [diethyl ether] + C=CC[n+]1ccn(CCCCCCCCCC)c1.[Br-] showed an activity coefficient of 3.54 ± 0.24.
Molecule CCOCC [diethyl ether] + C=CC[n+]1ccn(CCCCCCCCCCCC)c1.[Br-] has an activity coefficient of 2.95 ± 0.2.
Molecule CCOCC [diethyl ether] + C=CCn1cc[n+](C)c1.[Br-] has an activity coefficient of 11.4 ± 0.78.
With CCO [ethanol] + C=CC[n+]1ccn(CCCCCCCC)c1.[Br-] the activity coefficient was 0.27 ± 0.03.
For CCO [ethanol] + C=CC[n+]1ccn(CCCCCCCCCC)c1.[Br-], the activity coefficient was 0.26 ± 0.03.
For CCO [ethanol] + C=CC[n+]1ccn(CCCCCCCCCCCC)c1.[Br-], the activity coefficient was 0.23 ± 0.03.
Work on CCO [ethanol] + C=CCn1cc[n+](C)c1.[Br-] yielded an activity coefficient of 0.27 ± 0.03.
With CCc1ccccc1 [ethylbenzene] + C=CC[n+]1ccn(CCCCCCCC)c1.[Br-] the activity coefficient was 2.56 ± 0.17.
For CCc1ccccc1 [ethylbenzene] + C=CC[n+]1ccn(CCCCCCCCCC)c1.[Br-], the activity coefficient was 2.54 ± 0.17.
CCc1ccccc1 [ethylbenzene] + C=CC[n+]1ccn(CCCCCCCCCCCC)c1.[Br-] showed an activity coefficient of 1.77 ± 0.12.
In the case of CCc1ccccc1 [ethylbenzene] + C=CCn1cc[n+](C)c1.[Br-], the activity coefficient is reported as 11.1 ± 0.76.
CCc1ccccc1 [ethylbenzene] + CCCCCCCCCCCC[n+]1ccn(CCCB(O)O)c1.[Br-] gave an activity coefficient of 3.83 ± 0.26.
With CCc1ccccc1 [ethylbenzene] + CCCCCCCCCC[n+]1ccn(CCCB(O)O)c1.[Br-] the activity coefficient was 2.37 ± 0.16.
CCc1ccccc1 [ethylbenzene] + CCCCCCCC[n+]1ccn(CCCB(O)O)c1.[Br-] showed an activity coefficient of 3.28 ± 0.22.
Work on CCc1ccccc1 [ethylbenzene] + C[n+]1ccn(CCCB(O)O)c1.[Br-] yielded an activity coefficient of 45.1 ± 3.1.
Work on CCCCCCC [heptane] + C=CC[n+]1ccn(CCCCCCCC)c1.[Br-] yielded an activity coefficient of 11.4 ± 0.78.
Molecule CCCCCCC [heptane] + C=CC[n+]1ccn(CCCCCCCCCC)c1.[Br-] has an activity coefficient of 11.1 ± 0.76.
In the case of CCCCCCC [heptane] + C=CC[n+]1ccn(CCCCCCCCCCCC)c1.[Br-], the activity coefficient is reported as 5.32 ± 0.36.
With CCCCCCC [heptane] + C=CCn1cc[n+](C)c1.[Br-] the activity coefficient was 49.6 ± 3.4.
With CCCCCCC [heptane] + CCCCCCCCCCCC[n+]1ccn(CCCB(O)O)c1.[Br-] the activity coefficient was 5.36 ± 0.37.
CCCCCCC [heptane] + CCCCCCCCCC[n+]1ccn(CCCB(O)O)c1.[Br-] gave an activity coefficient of 7.04 ± 0.48.
CCCCCCC [heptane] + CCCCCCCC[n+]1ccn(CCCB(O)O)c1.[Br-] showed an activity coefficient of 20.2 ± 1.4.
With CCCCCCC [heptane] + C[n+]1ccn(CCCB(O)O)c1.[Br-] the activity coefficient was 77.6 ± 5.3.
C=CCCCC [hex-1-ene] + C=CC[n+]1ccn(CCCCCCCC)c1.[Br-] gave an activity coefficient of 5.93 ± 0.4.
In the case of C=CCCCC [hex-1-ene] + C=CC[n+]1ccn(CCCCCCCCCC)c1.[Br-], the activity coefficient is reported as 5.89 ± 0.4.
C=CCCCC [hex-1-ene] + C=CC[n+]1ccn(CCCCCCCCCCCC)c1.[Br-] gave an activity coefficient of 3.47 ± 0.24.
For C=CCCCC [hex-1-ene] + C=CCn1cc[n+](C)c1.[Br-], the activity coefficient was 16.5 ± 1.1.
In the case of C=CCCCC [hex-1-ene] + CCCCCCCCCCCC[n+]1ccn(CCCB(O)O)c1.[Br-], the activity coefficient is reported as 3.6 ± 0.25.
In the case of C=CCCCC [hex-1-ene] + CCCCCCCCCC[n+]1ccn(CCCB(O)O)c1.[Br-], the activity coefficient is reported as 3.76 ± 0.26.
Molecule C=CCCCC [hex-1-ene] + CCCCCCCC[n+]1ccn(CCCB(O)O)c1.[Br-] has an activity coefficient of 8.32 ± 0.57.
For CCCCCC [hexane] + C=CC[n+]1ccn(CCCCCCCC)c1.[Br-], the activity coefficient was 8.9 ± 0.61.
Work on CCCCCC [hexane] + C=CC[n+]1ccn(CCCCCCCCCC)c1.[Br-] yielded an activity coefficient of 8.39 ± 0.57.
For CCCCCC [hexane] + C=CC[n+]1ccn(CCCCCCCCCCCC)c1.[Br-], the activity coefficient was 4.41 ± 0.3.
In the case of CCCCCC [hexane] + C=CCn1cc[n+](C)c1.[Br-], the activity coefficient is reported as 25.1 ± 1.7.
Work on CCCCCC [hexane] + CCCCCCCCCCCC[n+]1ccn(CCCB(O)O)c1.[Br-] yielded an activity coefficient of 4.65 ± 0.32.
Work on CCCCCC [hexane] + CCCCCCCCCC[n+]1ccn(CCCB(O)O)c1.[Br-] yielded an activity coefficient of 5.45 ± 0.37.
Work on CCCCCC [hexane] + CCCCCCCC[n+]1ccn(CCCB(O)O)c1.[Br-] yielded an activity coefficient of 18.2 ± 1.2.
Molecule CO [methanol] + C=CC[n+]1ccn(CCCCCCCC)c1.[Br-] has an activity coefficient of 0.17 ± 0.03.
In the case of CO [methanol] + C=CC[n+]1ccn(CCCCCCCCCC)c1.[Br-], the activity coefficient is reported as 0.17 ± 0.03.
CO [methanol] + C=CC[n+]1ccn(CCCCCCCCCCCC)c1.[Br-] gave an activity coefficient of 0.15 ± 0.03.
CO [methanol] + C=CCn1cc[n+](C)c1.[Br-] showed an activity coefficient of 0.18 ± 0.03.
CO [methanol] + CCCCCCCCCCCC[n+]1ccn(CCCB(O)O)c1.[Br-] showed an activity coefficient of 0.04.
CO [methanol] + CCCCCCCCCC[n+]1ccn(CCCB(O)O)c1.[Br-] showed an activity coefficient of 0.05.
Molecule CO [methanol] + CCCCCCCC[n+]1ccn(CCCB(O)O)c1.[Br-] has an activity coefficient of 0.04.
CO [methanol] + C[n+]1ccn(CCCB(O)O)c1.[Br-] showed an activity coefficient of 0.05.
In the case of CCCCCCCCC [nonane] + C=CC[n+]1ccn(CCCCCCCC)c1.[Br-], the activity coefficient is reported as 17.4 ± 1.2.
CCCCCCCCC [nonane] + C=CC[n+]1ccn(CCCCCCCCCC)c1.[Br-] showed an activity coefficient of 16.9 ± 1.2.
For CCCCCCCCC [nonane] + C=CC[n+]1ccn(CCCCCCCCCCCC)c1.[Br-], the activity coefficient was 6.93 ± 0.47.
Work on CCCCCCCCC [nonane] + C=CCn1cc[n+](C)c1.[Br-] yielded an activity coefficient of 65.6 ± 4.5.
With CCCCCCCCC [nonane] + CCCCCCCCCCCC[n+]1ccn(CCCB(O)O)c1.[Br-] the activity coefficient was 6.99 ± 0.48.
CCCCCCCCC [nonane] + CCCCCCCCCC[n+]1ccn(CCCB(O)O)c1.[Br-] showed an activity coefficient of 9.92 ± 0.68.
CCCCCCCCC [nonane] + CCCCCCCC[n+]1ccn(CCCB(O)O)c1.[Br-] gave an activity coefficient of 26.2 ± 1.8.
Work on CCCCCCCCC [nonane] + C[n+]1ccn(CCCB(O)O)c1.[Br-] yielded an activity coefficient of 83.2 ± 5.7.
CCCCCCCC [octane] + C=CC[n+]1ccn(CCCCCCCC)c1.[Br-] showed an activity coefficient of 14.9 ± 1.
In the case of CCCCCCCC [octane] + C=CC[n+]1ccn(CCCCCCCCCC)c1.[Br-], the activity coefficient is reported as 14.3 ± 0.98.
With CCCCCCCC [octane] + C=CC[n+]1ccn(CCCCCCCCCCCC)c1.[Br-] the activity coefficient was 6.37 ± 0.43.
CCCCCCCC [octane] + C=CCn1cc[n+](C)c1.[Br-] gave an activity coefficient of 63 ± 4.3.
Molecule CCCCCCCC [octane] + CCCCCCCCCCCC[n+]1ccn(CCCB(O)O)c1.[Br-] has an activity coefficient of 6.34 ± 0.43.
CCCCCCCC [octane] + CCCCCCCCCC[n+]1ccn(CCCB(O)O)c1.[Br-] gave an activity coefficient of 8.81 ± 0.6.
CCCCCCCC [octane] + CCCCCCCC[n+]1ccn(CCCB(O)O)c1.[Br-] showed an activity coefficient of 23.6 ± 1.6.
With CCCCCCCC [octane] + C[n+]1ccn(CCCB(O)O)c1.[Br-] the activity coefficient was 81 ± 5.5.
Work on CCCC(C)=O [pentan-2-one] + C=CC[n+]1ccn(CCCCCCCC)c1.[Br-] yielded an activity coefficient of 1.93 ± 0.13.
In the case of CCCC(C)=O [pentan-2-one] + C=CC[n+]1ccn(CCCCCCCCCC)c1.[Br-], the activity coefficient is reported as 1.78 ± 0.12.
In the case of CCCC(C)=O [pentan-2-one] + C=CC[n+]1ccn(CCCCCCCCCCCC)c1.[Br-], the activity coefficient is reported as 1.62 ± 0.11.
Work on CCCC(C)=O [pentan-2-one] + C=CCn1cc[n+](C)c1.[Br-] yielded an activity coefficient of 4.32 ± 0.29.
In the case of CCCC(C)=O [pentan-2-one] + CCCCCCCCCCCC[n+]1ccn(CCCB(O)O)c1.[Br-], the activity coefficient is reported as 1.63 ± 0.11.
Work on CCCC(C)=O [pentan-2-one] + CCCCCCCCCC[n+]1ccn(CCCB(O)O)c1.[Br-] yielded an activity coefficient of 1.67 ± 0.11.
CCCC(C)=O [pentan-2-one] + CCCCCCCC[n+]1ccn(CCCB(O)O)c1.[Br-] showed an activity coefficient of 2.32 ± 0.16.
For CCCC(C)=O [pentan-2-one] + C[n+]1ccn(CCCB(O)O)c1.[Br-], the activity coefficient was 24.2 ± 1.7.
Work on CCCO [propan-1-ol] + C=CC[n+]1ccn(CCCCCCCC)c1.[Br-] yielded an activity coefficient of 0.28 ± 0.03.
With CCCO [propan-1-ol] + C=CC[n+]1ccn(CCCCCCCCCC)c1.[Br-] the activity coefficient was 0.28 ± 0.03.
With CCCO [propan-1-ol] + C=CC[n+]1ccn(CCCCCCCCCCCC)c1.[Br-] the activity coefficient was 0.23 ± 0.03.
For CCCO [propan-1-ol] + C=CCn1cc[n+](C)c1.[Br-], the activity coefficient was 0.54 ± 0.04.
CC(C)O [propan-2-ol] + C=CC[n+]1ccn(CCCCCCCC)c1.[Br-] showed an activity coefficient of 0.36 ± 0.03.
CC(C)O [propan-2-ol] + C=CC[n+]1ccn(CCCCCCCCCC)c1.[Br-] showed an activity coefficient of 0.35 ± 0.03.
CC(C)O [propan-2-ol] + C=CC[n+]1ccn(CCCCCCCCCCCC)c1.[Br-] gave an activity coefficient of 0.29 ± 0.03.
CC(C)O [propan-2-ol] + C=CCn1cc[n+](C)c1.[Br-] showed an activity coefficient of 0.69 ± 0.05.
ClC(Cl)(Cl)Cl [tetrachloromethane] + C=CC[n+]1ccn(CCCCCCCC)c1.[Br-] gave an activity coefficient of 0.82 ± 0.05.
In the case of ClC(Cl)(Cl)Cl [tetrachloromethane] + C=CC[n+]1ccn(CCCCCCCCCC)c1.[Br-], the activity coefficient is reported as 0.8 ± 0.05.
ClC(Cl)(Cl)Cl [tetrachloromethane] + C=CC[n+]1ccn(CCCCCCCCCCCC)c1.[Br-] showed an activity coefficient of 0.7 ± 0.05.
Work on ClC(Cl)(Cl)Cl [tetrachloromethane] + C=CCn1cc[n+](C)c1.[Br-] yielded an activity coefficient of 1.54 ± 0.1.
For ClC(Cl)(Cl)Cl [tetrachloromethane] + CCCCCCCCCCCC[n+]1ccn(CCCB(O)O)c1.[Br-], the activity coefficient was 0.9 ± 0.06.
With ClC(Cl)(Cl)Cl [tetrachloromethane] + CCCCCCCCCC[n+]1ccn(CCCB(O)O)c1.[Br-] the activity coefficient was 0.79 ± 0.05.
Molecule ClC(Cl)(Cl)Cl [tetrachloromethane] + CCCCCCCC[n+]1ccn(CCCB(O)O)c1.[Br-] has an activity coefficient of 1.23 ± 0.08.
